# Assay results as given in patent US12195755B2, “Placental lipid bilayer for cell-free molecular interaction studies” (priority 2019, dated 2025).
# Legend:
# [1] = system: keratinocytes; details: cited from earlier work
# [2] = Parallel artificial membrane permeability assay (PAMPA) with suspended lipid bilayers; type: in vitro ADME, human; details: 0.1 mg/mL amphotericin B
# Method: “Parallel artificial membrane permeability assay” (PAMPA) is a method that determines the permeability of substances from a donor compartment, through a lipid-infused artificial membrane into an acceptor compartment. A multi-well microtiter plate is used for the donor, and a membrane/acceptor compartment is placed on top. The whole assembly is referred to in the heterogeneous membrane art as a “sandwich.” Initially, the drug is added to the donor compartment, and the acceptor compartment is drug-free. After an incubation period, which may include stirring, the sandwich is separated, and the drug is measured in each compartment. Techniques including but not limited to absorbance measurements allow calculation of the drug that remains in the membrane.
# Using a parallel artificial permeability assay (PAMPA) with suspended lipid bilayers, polyvinylidene difluoride (PVDF) 96-well multiscreen filter plates ([…]) and transport receiver plates (Millipore-Sigma, Burlington, MA, USA), the inventors investigate DEHP, amphotericin B, and amBisome® diffusion from a donor compartment, through the porous membrane treated with lipid, to an acceptor compartment. The maximum absorbance for DEHP, amphotericin B, and amBisome® was measured using a plate reader and determined to be 280 nm, 340 nm, and 320 nm, respectively. […]
# [3] = cited from earlier work
compound,measurement,setting,value
"CNC(=O)Oc1cccc2c1OC(C)(C)C2 [Carbofuran, carbofuran]",toxicity against keratinocytes,[1],toxic
C[C@@H]1[C@H](O)[C@@H](C)/C=C/C=C/C=C/C=C/C=C/C=C/C=C/[C@H](O[C@@H]2O[C@H](C)[C@@H](O)[C@H](N)[C@@H]2O)C[C@@H]2O[C@](O)(C[C@@H](O)C[C@@H](O)[C@H](O)CC[C@@H](O)C[C@@H](O)CC(=O)O[C@H]1C)C[C@H](O)[C@H]2C(=O)O [amphotericin B],interaction with suspended trophoblast bilayers compared to amBisome®,[2],interacts less
same,interaction with suspended trophoblast bilayers compared to amBisome®,[2]; listed as Amphotericin B,interacted more
"CCCCC(CC)COC(=O)c1ccccc1C(=O)OCC(CC)CCCC (centres unmarked) [DEHP, di(2-ethylhexyl) phthalate]",risk for miscarriage,[3]; higher concentrations of phthalates,increases the risk for miscarriage
same,more likely to lose a pregnancy compared to women with lower levels,[3]; women exposed to high concentrations,60%
